This note sets out measurements from patent publication US20260325533A1, “CDK INHIBITOR COMPOUNDS” (ALEKSIA THERAPEUTICS, INC., priority 2023, published 2026).

Holding throughout (assay type): biochemical
One assay deals with CDK2/CCNE1 (Homo sapiens, UniProt P24941). Nature of the assay: CDK2 homogeneous time-resolved fluorescence (HTRF) kinase assay. Particulars: CDK2/CCNE. The procedure, abridged:
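IC50 derived from 11-point, half-log dilutions (usually top 10 μM) of compound, 1% DMSO. Kinase (3 nM CDK2/CCNE1) was preincubated with compound 20 min, then phosphorylated 50 nM ULight-4E-BP1 peptide at 1 mM ATP for 60 min, 23 °C. Europium-antibody TR-FRET read after EDTA stop.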
Background: In TR-FRET formats the signal depends on donor and acceptor labels being close together.

In the next assay the target is CDK1/CCNB1 (Homo sapiens, UniProt P06493). Nature of the assay: CDK1 homogeneous time-resolved fluorescence (HTRF) kinase assay. Particulars: CDK1/CCNB; x = IC50 >250 nM; read-out: CDK1/CCNB IC50 (>250 nM column). The method in brief: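 Kinase activity is measured as Lance signal (665 nm, or 665/615 nm ratio) from europium-labelled anti-phospho-Thr37/46 antibody binding ULight-4E-BP1 peptide. Reactions contain 0.5 nM enzyme, 1 mM ATP, 1% DMSO and run 60 min at 23 °C before EDTA quench.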
Chain of CDK1/CCNB1 (P06493 whole entry): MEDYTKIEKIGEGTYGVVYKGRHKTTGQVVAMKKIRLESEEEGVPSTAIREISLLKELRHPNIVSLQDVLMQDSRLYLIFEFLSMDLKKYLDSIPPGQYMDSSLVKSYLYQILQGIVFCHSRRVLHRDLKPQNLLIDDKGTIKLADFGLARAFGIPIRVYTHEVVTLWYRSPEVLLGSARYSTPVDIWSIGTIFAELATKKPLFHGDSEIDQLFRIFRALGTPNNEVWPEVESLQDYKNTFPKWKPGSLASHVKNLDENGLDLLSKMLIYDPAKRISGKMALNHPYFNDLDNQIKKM
Chain of CDK1/CCNB1 (P14635 whole entry partner): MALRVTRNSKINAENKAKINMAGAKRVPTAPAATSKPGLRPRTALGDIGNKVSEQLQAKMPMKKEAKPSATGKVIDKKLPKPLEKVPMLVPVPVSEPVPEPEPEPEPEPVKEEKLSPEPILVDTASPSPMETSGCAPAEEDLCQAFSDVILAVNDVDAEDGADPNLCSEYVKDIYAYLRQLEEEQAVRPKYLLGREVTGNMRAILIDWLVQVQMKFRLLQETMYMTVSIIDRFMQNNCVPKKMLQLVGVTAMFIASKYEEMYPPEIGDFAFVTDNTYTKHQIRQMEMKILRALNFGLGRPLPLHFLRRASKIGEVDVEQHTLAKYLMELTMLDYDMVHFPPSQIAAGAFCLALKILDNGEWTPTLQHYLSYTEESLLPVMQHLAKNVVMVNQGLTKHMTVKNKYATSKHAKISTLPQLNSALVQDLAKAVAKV

A further assay addresses CDK4/CCND3 (Homo sapiens, UniProt P11802). Nature of the assay: CDK4 homogeneous time-resolved fluorescence (HTRF) kinase assay. Particulars: CDK4/CCND. The method in brief: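 IC50 values were derived from 11-point half-log dilutions, usually starting at 10 μM. Compound was first held for 20 min at 23 °C with 1.5 nM CDK4/CCND3. 1 mM ATP and 50 nM ULight-eIF4E-BP1 (Thr37/46) substrate were then added for 60 min, and the TR-FRET 665 nm signal was measured after EDTA stop and Eu-anti-phospho-4E-BP1 detection.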

The target of the next assay is CDK6/CCND1 (Homo sapiens, UniProt Q00534). Put plainly: CDK6 homogeneous time-resolved fluorescence (HTRF) kinase assay. The settings on record: CDK6/CCND. The method in brief:
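Recombinant CDK6/CCND1 (1 nM final) was preincubated with compound for 20 min at 23 °C in HEPES buffer with MgCl2, EGTA, DTT and Tween 20. Kinase reaction then ran 60 min at 23 °C with 1 mM ATP and 50 nM ULight-4E-BP1 (Thr37/46) peptide, and was stopped with EDTA.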

The mark [1] stands for this setting: x = IC50 25-250 nM, read-out: CDK2/CCNE IC50 (25-250 nM).
[2] abbreviates: x = IC50 >250 nM, read-out: CDK4/CCND IC50 (>250 nM column).
[3] abbreviates: x = IC50 >250 nM, read-out: CDK6/CCND IC50 (>250 nM column).
[4] abbreviates: x = IC50 >250 nM, read-out: CDK2/CCNE IC50 (>250 nM column).
[5] abbreviates: x = IC50 <25 nM, read-out: CDK2/CCNE IC50 (<25 nM).
Where [6] appears, read: x = IC50 25-250 nM, read-out: CDK6/CCND IC50 (25-250 nM).
[7] abbreviates: x = IC50 25-250 nM, read-out: CDK4/CCND IC50 (25-250 nM).

The structures appear in SMILES notation. Read-outs that look alike come from different tables or passages of the source.

Chain of CDK6/CCND1 (Q00534 whole entry): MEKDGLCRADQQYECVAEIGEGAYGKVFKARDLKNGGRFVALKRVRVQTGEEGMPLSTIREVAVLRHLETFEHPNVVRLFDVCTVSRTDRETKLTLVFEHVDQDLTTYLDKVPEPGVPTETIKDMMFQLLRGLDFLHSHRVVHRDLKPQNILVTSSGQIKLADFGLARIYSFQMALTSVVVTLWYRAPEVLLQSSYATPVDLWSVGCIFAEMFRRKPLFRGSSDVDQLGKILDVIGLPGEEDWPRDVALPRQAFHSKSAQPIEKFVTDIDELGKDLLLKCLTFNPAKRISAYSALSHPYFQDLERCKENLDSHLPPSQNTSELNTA
Chain of CDK6/CCND1 (P24385 whole entry partner): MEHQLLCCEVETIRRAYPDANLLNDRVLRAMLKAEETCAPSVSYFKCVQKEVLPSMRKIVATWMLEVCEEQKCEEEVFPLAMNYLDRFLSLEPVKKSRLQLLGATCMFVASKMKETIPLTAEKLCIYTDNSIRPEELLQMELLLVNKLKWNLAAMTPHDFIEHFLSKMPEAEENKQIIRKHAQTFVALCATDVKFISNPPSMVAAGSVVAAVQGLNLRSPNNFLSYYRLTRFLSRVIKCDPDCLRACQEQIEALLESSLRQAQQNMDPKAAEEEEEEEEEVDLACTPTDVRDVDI
Chain of CDK4/CCND3 (P11802 whole entry): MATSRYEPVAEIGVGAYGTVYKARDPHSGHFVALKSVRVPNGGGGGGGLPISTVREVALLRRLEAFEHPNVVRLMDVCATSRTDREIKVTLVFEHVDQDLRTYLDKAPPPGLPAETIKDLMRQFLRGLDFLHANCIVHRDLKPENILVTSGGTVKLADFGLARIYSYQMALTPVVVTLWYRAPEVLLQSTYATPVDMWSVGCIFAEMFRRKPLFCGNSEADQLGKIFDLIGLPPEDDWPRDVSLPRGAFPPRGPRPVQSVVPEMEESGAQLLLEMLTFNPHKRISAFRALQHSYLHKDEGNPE
Chain of CDK4/CCND3 (P30281 whole entry partner): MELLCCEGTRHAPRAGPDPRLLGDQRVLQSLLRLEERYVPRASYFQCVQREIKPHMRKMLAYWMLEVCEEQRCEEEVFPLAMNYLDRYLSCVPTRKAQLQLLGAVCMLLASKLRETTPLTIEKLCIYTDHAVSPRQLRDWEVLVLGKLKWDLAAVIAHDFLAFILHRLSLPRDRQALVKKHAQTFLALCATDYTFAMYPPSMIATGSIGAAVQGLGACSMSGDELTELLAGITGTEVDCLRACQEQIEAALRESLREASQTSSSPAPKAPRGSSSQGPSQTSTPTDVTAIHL

Take `CS(=O)(=O)c1ccc(Nc2cc3c(C#Cc4ccc5c(c4)OCC(=O)N5)nccc3cn2)cc1` [Example 519, 7-((7-((4-(methylsulfonyl)phenyl)amino)-2,6-naphthyridin-1-yl)ethynyl)-2H-benzo[b][1,4]oxazin-3(4H)-one]: the IC50 on CDK2/CCNE1 (setting [1]) was 0.025 to 0.25 µM; at CDK1/CCNB1, over 0.25 µM; on CDK4/CCND3 (setting [2]), over 0.25 µM; on CDK6/CCND1 (setting [3]) it was over 0.25 µM.
As for `CS(=O)(=O)c1ccc(Nc2cc3c(C#Cc4ccc(C(F)F)nc4)nccc3cn2)cc1` [Example 524, 5-((6-(difluoromethyl)pyridin-3-yl)ethynyl)-N-(4-(methylsulfonyl)phenyl)-2,6-naphthyridin-3-amine], the IC50 at CDK2/CCNE1 (setting [4]), at CDK1/CCNB1, on CDK4/CCND3 (setting [2]) and at CDK6/CCND1 (setting [3]) was over 0.25 µM throughout.
Regarding `CS(=O)(=O)c1ccc(Nc2cc3c(C#Cc4ccc(Cl)cn4)nccc3cn2)cc1` [Example 544, 5-((5-chloropyridin-2-yl)ethynyl)-N-(4-(methylsulfonyl)phenyl)-2,6-naphthyridin-3-amine], the IC50 at CDK2/CCNE1 (setting [4]), at CDK1/CCNB1, on CDK4/CCND3 (setting [2]) and on CDK6/CCND1 (setting [3]) was over 0.25 µM each time.
With `CC(C)(O)c1cc2ccc(C#Cc3nccc4cnc(Nc5ccc(S(C)(=O)=O)cc5)cc34)cc2[nH]1` [Example 590, 2-(6-((7-((4-(methylsulfonyl)phenyl)amino)-2,6-naphthyridin-1-yl)ethynyl)-1H-indol-2-yl)propan-2-ol], the IC50 on CDK2/CCNE1 (setting [1]) is 0.025 to 0.25 µM; at CDK1/CCNB1 it was over 0.25 µM; on CDK4/CCND3 (setting [2]), over 0.25 µM; on CDK6/CCND1 (setting [3]) it was over 0.25 µM.
As for `Cc1c(-c2nccc3cnc(Nc4ccc(S(C)(=O)=O)cc4)cc23)ncc2[nH]ncc12` [Example 591, 5-(4-methyl-1H-pyrazolo[3,4-c]pyridin-5-yl)-N-(4-(methylsulfonyl)phenyl)-2,6-naphthyridin-3-amine], the IC50 was 0.025 to 0.25 µM at CDK2/CCNE1 (setting [1]), over 0.25 µM at CDK1/CCNB1, over 0.25 µM at CDK4/CCND3 (setting [2]) and over 0.25 µM at CDK6/CCND1 (setting [3]).
In the case of `CC(Cn1ncc2c(C)c(-c3nccc4cnc(Nc5ccc(S(C)(=O)=O)cc5)cc34)ccc21)=NO` [Example 592, 1-(4-methyl-5-(7-((4-(methylsulfonyl)phenyl)amino)-2,6-naphthyridin-1-yl)-1H-indazol-1-yl)propan-2-one oxime], the IC50 at CDK2/CCNE1 (setting [1]) is 0.025 to 0.25 µM; at CDK1/CCNB1 it was over 0.25 µM; on CDK4/CCND3 (setting [2]), over 0.25 µM; on CDK6/CCND1 (setting [3]), over 0.25 µM.
`CC(=O)Nc1cc(Nc2cc3c(-c4ccc5c(cnn5CCO)c4C)nccc3cn2)ccc1S(C)(=O)=O` [Example 593, N-(5-((5-(1-(2-hydroxyethyl)-4-methyl-1H-indazol-5-yl)-2,6-naphthyridin-3-yl)amino)-2-(methylsulfonyl)phenyl)acetamide]: the IC50 was 0.025 to 0.25 µM at CDK2/CCNE1 (setting [1]), over 0.25 µM on CDK1/CCNB1, over 0.25 µM at CDK4/CCND3 (setting [2]) and over 0.25 µM on CDK6/CCND1 (setting [3]).
As to `COC(=O)c1cc2ccc(C#Cc3nccc4cnc(Nc5ccc(S(C)(=O)=O)cc5)cc34)cc2[nH]1` [Example 594, methyl 6-((7-((4-(methylsulfonyl)phenyl)amino)-2,6-naphthyridin-1-yl)ethynyl)-1H-indole-2-carboxylate], the IC50 at CDK2/CCNE1 (setting [1]) is 0.025 to 0.25 µM; on CDK1/CCNB1, over 0.25 µM; on CDK4/CCND3 (setting [2]), over 0.25 µM; on CDK6/CCND1 (setting [3]), over 0.25 µM.
As to `Cc1c(-c2nccc3cnc(Nc4ccc(S(C)(=O)=O)cc4)cc23)ccc2c1cnn2CC(O)(C(F)(F)F)C(F)(F)F` [Example 595, 1,1,1,3,3,3-hexafluoro-2-((4-methyl-5-(7-((4-(methylsulfonyl)phenyl)amino)-2,6-naphthyridin-1-yl)-1H-indazol-1-yl)methyl)propan-2-ol], the IC50 was under 0.025 µM on CDK2/CCNE1 (setting [5]), over 0.25 µM on CDK1/CCNB1, over 0.25 µM at CDK4/CCND3 (setting [2]) and 0.025 to 0.25 µM on CDK6/CCND1 (setting [6]).
In the case of `CS(=O)(=O)c1ccc(Nc2cc3c(C#CC4CCN(Cc5cn[nH]c5)CC4)nccc3cn2)cc1` [Example 603, 5-((1-((1H-pyrazol-4-yl)methyl)piperidin-4-yl)ethynyl)-N-(4-(methylsulfonyl)phenyl)-2,6-naphthyridin-3-amine], the IC50 was under 0.025 µM on CDK2/CCNE1 (setting [5]), over 0.25 µM at CDK1/CCNB1, over 0.25 µM at CDK4/CCND3 (setting [2]) and 0.025 to 0.25 µM at CDK6/CCND1 (setting [6]).
As for `CC(C)(O)CN1CCc2cc(-c3nccc4cnc(Nc5ccc(S(C)(=O)=O)cc5)cc34)ccc2C1` [Example 629, 2-Methyl-1-(6-(7-((4-(methylsulfonyl)phenyl)amino)-2,6-naphthyridin-1-yl)-3,4-dihydroisoquinolin-2(1H)-yl)propan-2-ol], the IC50 on CDK2/CCNE1 (setting [5]) was under 0.025 µM; at CDK1/CCNB1 it was over 0.25 µM; at CDK4/CCND3 (setting [2]), over 0.25 µM; at CDK6/CCND1 (setting [6]), 0.025 to 0.25 µM.
On to `CC(=O)NCCn1cc2c(C)c(-c3nccc4cnc(Nc5ccc(S(C)(=O)=O)cc5)cc34)ccc2n1` [Example 630, N-(2-(4-methyl-5-(7-((4-(methylsulfonyl)phenyl)amino)-2,6-naphthyridin-1-yl)-2H-indazol-2-yl)ethyl)acetamide], for which the IC50 on CDK2/CCNE1 (setting [5]) was under 0.025 µM; on CDK1/CCNB1, over 0.25 µM; at CDK4/CCND3 (setting [7]), 0.025 to 0.25 µM; on CDK6/CCND1 (setting [6]) it was 0.025 to 0.25 µM.
Regarding `C=Cc1c(-c2nccc3cnc(Nc4ccc(S(C)(=O)=O)cc4)cc23)ccc2[nH]ncc12` [Example 641, N-(4-(methylsulfonyl)phenyl)-5-(4-vinyl-1H-indazol-5-yl)-2,6-naphthyridin-3-amine], the IC50 at CDK2/CCNE1 (setting [1]) is 0.025 to 0.25 µM; on CDK1/CCNB1, over 0.25 µM; at CDK4/CCND3 (setting [2]), over 0.25 µM; at CDK6/CCND1 (setting [3]), over 0.25 µM.
As for `Cc1c(-c2nccc3cnc(Nc4ccc(S(C)(=O)=O)cc4)cc23)ccc2c1cnn2CC(=O)NC1CCCCC1` [Example 642, N-cyclohexyl-2-(4-methyl-5-(7-((4-(methylsulfonyl)phenyl)amino)-2,6-naphthyridin-1-yl)-1H-indazol-1-yl)acetamide], the IC50 at CDK2/CCNE1 (setting [1]) was 0.025 to 0.25 µM; on CDK1/CCNB1, over 0.25 µM; on CDK4/CCND3 (setting [2]) it was over 0.25 µM; at CDK6/CCND1 (setting [3]), over 0.25 µM.
As to `Cc1c(-c2nccc3cnc(Nc4ccc(S(C)(=O)=O)cc4)cc23)ccc2c1cnn2C(N)=O` [Example 659, 4-methyl-5-(7-((4-(methylsulfonyl)phenyl)amino)-2,6-naphthyridin-1-yl)-1H-indazole-1-carboxamide], the IC50 on CDK2/CCNE1 (setting [5]) is under 0.025 µM; on CDK1/CCNB1, over 0.25 µM; on CDK4/CCND3 (setting [7]), 0.025 to 0.25 µM; on CDK6/CCND1 (setting [6]) it was 0.025 to 0.25 µM.
For `N#Cc1ccc(C#Cc2nccc3cnc(Nc4ccc(S(=O)(=O)CCN5CCOCC5)cc4)cc23)cc1` [Example 661, 4-((7-((4-((2-morpholinoethyl)sulfonyl)phenyl)amino)-2,6-naphthyridin-1-yl)ethynyl)benzonitrile], the IC50 at CDK2/CCNE1 (setting [1]) was 0.025 to 0.25 µM; on CDK1/CCNB1 it was over 0.25 µM; at CDK4/CCND3 (setting [2]), over 0.25 µM; at CDK6/CCND1 (setting [3]), over 0.25 µM.
For the molecule `Cn1cc(C#Cc2nccc3cnc(Nc4ccc(S(C)(=O)=O)cc4)cc23)ccc1=O` [Example 663, 1-Methyl-5-((7-((4-(methylsulfonyl)phenyl)amino)-2,6-naphthyridin-1-yl)ethynyl)pyridin-2(1H)-one], the IC50 at CDK2/CCNE1 (setting [1]) is 0.025 to 0.25 µM; on CDK1/CCNB1, over 0.25 µM; at CDK4/CCND3 (setting [2]), over 0.25 µM; on CDK6/CCND1 (setting [3]) it was over 0.25 µM.
